{
  "source": "patent US11787816B2",
  "about": "“Chlorin compound, and preparation and use thereof” (Southwest Jiaotong University, priority 2021, dated 2023)",
  "key": {"[1]": {"test_system": "human cervical cancer Hela cells", "test": "Photosensitizer-mediated PDT, in vitro proliferation (MTT), Hela", "type": "cell-based", "conditions": "for cell viability (%): Hela", "description": "(§1) Several kinds of tumor cells (human cervical cancer Hela cells, human hepatocellular carcinoma huh-7 cells and murine mammary carcinoma 4T1 cells) cultured in vitro from a variety of tissues were taken as cell models, so as to investigate the photodynamic effects mediated by different doses of CEFN, CEFO, Ce6 and HPPH on the three different tumor cells (n=3). The specific experimental procedures were carried out as follows.\n(§2) Cells in the logarithmic growth phase were harvested and seeded in a 24-well plate. After growing to a confluence of 70-80%, the cells were randomly divided into a control group (free of drug and light irradiation), a drug group and a photodynamic group. The CEFN, CEFO, Ce6 and HPPH were added respectively in dark, and for each drug, four final concentrations 1, 2, 5, and 10 μg/mL were set with 3 replicates for each group. After the co-incubation, the groups were treated individually. Regarding the photodynamic group, the light irradiation was performed at a wavelength of 660 nm and three different light intensities, i.e., 2, 4 and 8 J/cm^2. After that, each group was digested, and were inoculated into a 96-well plate at 100 μL per well with 4 replicates for each treatment. 24 hours later, the 96-well plate was subjected to MTT assay as follows. Each well was added with 20 μL of MTT (3-4,5-dimethylthiazol-2,5-diphenyltetrazolium bromide) solution in the dark and incubated for 4 hours. The supernatant was discarded, and the residue was dissolved with 150 μL of dimethyl sulfoxide for 15 min. After that, the 96-well plate was measured by a microplate reader for the absorbance (OD value). The relative cell viability was calculated as follows: relative cell viability=OD value of experimental group/OD value of control group*100%."}, "[2]": {"test_system": "human hepatocellular carcinoma huh-7 cells", "test": "Photosensitizer-mediated PDT, in vitro proliferation (MTT), huh-7", "type": "cell-based", "description": "as §1, §2"}, "[3]": {"test_system": "murine mammary carcinoma 4T1 cells", "test": "Antitumor activity as photosensitizers on tumor-bearing mice (one PDT treatment)", "type": "in vivo", "conditions": "for Inhibitory rate (average ± SD, %) / Tumor weight (average ± SD, g): 660 nm, 75 Joule/cm^2 6 h after dosing, 7 days after PDT; for Body weight At the begining / Body weight At the end: one PDT treatment, mice, in g (unit assumed)", "description": "(§3) The murine mammary carcinoma cells (4T1 line) were subjected to adherent culture. After growing to a confluence of 70%-80%, the cells in the culture flask were routinely digested, centrifuged and counted, and then resuspended with 0.85% normal saline to a density of 1×10^7 cells/mL. The cell suspension was injected into the left lateral middle axillary subcutaneous part of […] Bal b/c healthy mice (female, aged 6-8 weeks) at 0.1 mL/mouse. When the tumor diameter, which was observed every other day, reached 0.6-0.8 cm, the mice with well-growing tumors and no ulcers on the epidermis were selected for grouped treatment.\n(1) Mice with similar body weight and uniform tumor size are selected and randomly divided into 7 groups with 6 mice for each group. After inoculation for 48 h, the mice were subjected to drug administration separately from the tail vein by group.\n6 h after the drug administration, the mice were fixed to expose the tumor growth site. Light irradiation was performed for 8 min, using PDT-660 photodynamic therapy equipment at a laser wavelength of 660 nm and a light dose of 75 Joule/cm^2. Then both of the mice growth and tumor growth are observed continuously. 7 days after photodynamic therapy, the animals were sacrificed. The tumor was stripped and weighed, and the body weight was recorded."}, "[4]": {"test_system": "murine mammary carcinoma 4T1 cells", "test": "Antitumor activity as photosensitizers on tumor-bearing mice (two PDT treatments)", "type": "in vivo", "description": "as §3\n(2) Mice with similar body weight and uniform tumor size are selected and randomly divided into 4 groups with 6 mice for each group. After inoculation of 4T1 cells and the tumor volume grows to 50˜80 mm^3, the mice were subjected to a first drug administration from the tail vein by group.\n6 h after the drug administration, the mice were fixed to expose the tumor growth site. As a first PDT treatment, light irradiation was performed for 8 min, using PDT-660 photodynamic therapy equipment at the laser wavelength of 660 nm and the light dose of 150 Joule/cm^2. One week later, the second PDT treatment (the dosage and lighting conditions were the same as those of the first PDT treatment) was performed. The mice were sacrificed 14 days after the treatment. The tumor was removed, weighed and recorded."}, "[5]": {"test_system": "murine mammary carcinoma 4T1 cells", "test": "Antitumor activity as sonosensitizers (SDT) on tumor-bearing mice", "type": "in vivo", "conditions": "for Inhibitory rate (average ± SD, %) / Tumor weight (average ± SD, g): SDT 1.0 MHz, 3.0 W/cm^2, 3 min, 6 h after dosing, 7 days after SDT; for Body weight At the beginning / Body weight At the end: SDT, mice, in g (unit assumed)", "description": "as §3\nMice with similar body weight and uniform tumor size are selected and randomly divided into 6 groups with 6 mice for each group. 48 h after inoculation, the mice were subjected to drug administration separately from the tail vein by group.\n[…] 6 h after drug administration, each group of mice was anesthetized by intraperitoneal injection with 0.2 mL of 1% pentobarbital sodium. Then the mice were fixed to allow the tumor growth site exposed. The SDT group was treated using an ultrasonic therapeutic apparatus at an impulse waveform of 1.0 MHz and power of 3.0 W/cm^2 for 3 min. 7 days after SDT, the animals were sacrificed. The tumor was stripped and weighed, and the body weight was recorded."}, "[6]": {"conditions": "0.25 mg/kg tail vein, two PDT treatments one week apart, 660 nm, 150 Joule/cm^2, 14 days after treatment"}, "[7]": {"conditions": "0.25 mg/kg, two PDT treatments, mice, in g (unit assumed)"}},
  "data": [
    {"substance": "3-n-hexylaminomethyl-3-devinyl-chlorin e4 disodium salt [CEFN]", "values": [
      {"measurement": "cell viability (%)", "setting": "[1]; 1 μg/mL, 660 nm, 2 J/cm^2", "result": "98 ± 3", "unit": "%"},
      {"measurement": "cell viability (%)", "setting": "[1]; 1 μg/mL, 660 nm, 4 J/cm^2", "result": "99 ± 1", "unit": "%"},
      {"measurement": "cell viability (%)", "setting": "[1]; 1 μg/mL, 660 nm, 8 J/cm^2", "result": "78 ± 3", "unit": "%"},
      {"measurement": "cell viability (%)", "setting": "[1]; 1 μg/mL, no light", "result": "103 ± 2", "unit": "%"},
      {"measurement": "cell viability (%)", "setting": "[1]; 2 μg/mL, 660 nm, 2 J/cm^2", "result": "78 ± 3", "unit": "%"},
      {"measurement": "cell viability (%)", "setting": "[1]; 2 μg/mL, 660 nm, 4 J/cm^2", "result": "62 ± 2", "unit": "%"},
      {"measurement": "cell viability (%)", "setting": "[1]; 2 μg/mL, 660 nm, 8 J/cm^2", "result": "51 ± 3", "unit": "%"},
      {"measurement": "cell viability (%)", "setting": "[1]; 2 μg/mL, no light", "result": "99 ± 2", "unit": "%"},
      {"measurement": "cell viability (%)", "setting": "[1]; 5 μg/mL, 660 nm, 2 J/cm^2", "result": "43 ± 3", "unit": "%"},
      {"measurement": "cell viability (%)", "setting": "[1]; 5 μg/mL, 660 nm, 4 J/cm^2", "result": "32 ± 4", "unit": "%"},
      {"measurement": "cell viability (%)", "setting": "[1]; 5 μg/mL, 660 nm, 8 J/cm^2", "result": "21 ± 3", "unit": "%"},
      {"measurement": "cell viability (%)", "setting": "[1]; 5 μg/mL, no light", "result": "106 ± 2", "unit": "%"},
      {"measurement": "cell viability (%)", "setting": "[1]; 10 μg/mL, 660 nm, 2 J/cm^2", "result": "36 ± 3", "unit": "%"},
      {"measurement": "cell viability (%)", "setting": "[1]; 10 μg/mL, 660 nm, 4 J/cm^2", "result": "17 ± 2", "unit": "%"},
      {"measurement": "cell viability (%)", "setting": "[1]; 10 μg/mL, no light", "result": "104 ± 2", "unit": "%"},
      {"measurement": "toxicity to the cells when the drug is used alone without photodynamic treatment", "setting": "[1]; summary statement for Hela, huh-7 and 4T1 cells, no light", "result": "will not lower the cell viability"},
      {"measurement": "cell viability (%)", "setting": "[2]; 1 μg/mL, 660 nm, 2 J/cm^2", "result": "101 ± 3", "unit": "%"},
      {"measurement": "cell viability (%)", "setting": "[2]; 1 μg/mL, 660 nm, 4 J/cm^2", "result": "78 ± 3", "unit": "%"},
      {"measurement": "cell viability (%)", "setting": "[2]; 1 μg/mL, 660 nm, 8 J/cm^2", "result": "90 ± 3", "unit": "%"},
      {"measurement": "cell viability (%)", "setting": "[2]; 1 μg/mL, no light", "result": "97 ± 2", "unit": "%"},
      {"measurement": "cell viability (%)", "setting": "[2]; 2 μg/mL, 660 nm, 2 J/cm^2", "result": "87 ± 2", "unit": "%"},
      {"measurement": "cell viability (%)", "setting": "[2]; 2 μg/mL, 660 nm, 4 J/cm^2", "result": "68 ± 2", "unit": "%"},
      {"measurement": "cell viability (%)", "setting": "[2]; 2 μg/mL, 660 nm, 8 J/cm^2", "result": "64 ± 3", "unit": "%"},
      {"measurement": "cell viability (%)", "setting": "[2]; 2 μg/mL, no light", "result": "95 ± 3", "unit": "%"},
      {"measurement": "cell viability (%)", "setting": "[2]; 5 μg/mL, 660 nm, 2 J/cm^2", "result": "61 ± 2", "unit": "%"},
      {"measurement": "cell viability (%)", "setting": "[2]; 5 μg/mL, 660 nm, 4 J/cm^2", "result": "55 ± 3", "unit": "%"},
      {"measurement": "cell viability (%)", "setting": "[2]; 5 μg/mL, 660 nm, 8 J/cm^2", "result": "47 ± 2", "unit": "%"},
      {"measurement": "cell viability (%)", "setting": "[2]; 5 μg/mL, no light", "result": "93 ± 3", "unit": "%"},
      {"measurement": "cell viability (%)", "setting": "[2]; 10 μg/mL, 660 nm, 2 J/cm^2", "result": "50 ± 2", "unit": "%"},
      {"measurement": "cell viability (%)", "setting": "[2]; 10 μg/mL, 660 nm, 4 J/cm^2", "result": "12 ± 3", "unit": "%"},
      {"measurement": "cell viability (%)", "setting": "[2]; 10 μg/mL, 660 nm, 8 J/cm^2", "result": "9 ± 2", "unit": "%"},
      {"measurement": "cell viability (%)", "setting": "[2]; 10 μg/mL, no light", "result": "93 ± 1", "unit": "%"},
      {"measurement": "Inhibitory rate (average ± SD, %)", "setting": "[3]; 0.2 mg/kg tail vein", "result": "68.5 ± 1.7", "unit": "%"},
      {"measurement": "Tumor weight (average ± SD, g)", "setting": "[3]; 0.2 mg/kg tail vein", "result": "0.051 ± 0.003", "unit": "g"},
      {"measurement": "Body weight At the begining", "setting": "[3]; 0.2 mg/kg", "result": "20.6 ± 0.6"},
      {"measurement": "Body weight At the end", "setting": "[3]; 0.2 mg/kg", "result": "21.7 ± 0.5"},
      {"measurement": "Inhibitory rate (average ± SD, %)", "setting": "[3]; 0.4 mg/kg tail vein", "result": "82.7 ± 3.7", "unit": "%"},
      {"measurement": "Tumor weight (average ± SD, g)", "setting": "[3]; 0.4 mg/kg tail vein", "result": "0.028 ± 0.006", "unit": "g"},
      {"measurement": "Body weight At the begining", "setting": "[3]; 0.4 mg/kg", "result": "20.5 ± 0.4"},
      {"measurement": "Body weight At the end", "setting": "[3]; 0.4 mg/kg", "result": "21.6 ± 0.5"},
      {"measurement": "Inhibitory rate (average ± SD, %)", "setting": "[4]; [6]", "result": "86.1 ± 3.5", "unit": "%"},
      {"measurement": "Tumor weight (average ± SD, g)", "setting": "[4]; [6]", "result": "0.132 ± 0.032", "unit": "g"},
      {"measurement": "Body weight At the beginning", "setting": "[4]; [7]", "result": "20.3 ± 0.3"},
      {"measurement": "Body weight At the end", "setting": "[4]; [7]", "result": "22.4 ± 0.4"},
      {"measurement": "Inhibitory rate (average ± SD, %)", "setting": "[5]; 2.5 mg/kg tail vein", "result": "42.1 ± 4.2", "unit": "%"},
      {"measurement": "Tumor weight (average ± SD, g)", "setting": "[5]; 2.5 mg/kg tail vein", "result": "0.099 ± 0.007", "unit": "g"},
      {"measurement": "Body weight At the beginning", "setting": "[5]; 2.5 mg/kg", "result": "20.5 ± 0.3"},
      {"measurement": "Body weight At the end", "setting": "[5]; 2.5 mg/kg", "result": "21.6 ± 0.2"},
      {"measurement": "Inhibitory rate (average ± SD, %)", "setting": "[5]; 5 mg/kg tail vein", "result": "66.7 ± 3.0", "unit": "%"},
      {"measurement": "Tumor weight (average ± SD, g)", "setting": "[5]; 5 mg/kg tail vein", "result": "0.057 ± 0.005", "unit": "g"},
      {"measurement": "Body weight At the beginning", "setting": "[5]; 5 mg/kg", "result": "20.3 ± 0.2"},
      {"measurement": "Body weight At the end", "setting": "[5]; 5 mg/kg", "result": "21.3 ± 0.3"}
    ]}
  ]
}
